Holding throughout (type): cell-based
In one test the test system is different microbes. The experiment in a line: Antimicrobial activity, agar plate disc-diffusion (overall statement). The following applies: against different microbes, result in words. The protocol:
The agar plate disc-diffusion method was applied. Sterilized filter papers (6 mm in diameter) were wetted with 10 μL of a solution of 3-(4-bromophenyl)-5-((2-isopropyl-5-methylphenoxy)methyl)-1,2,4-oxadiazole (3) to be tested, containing 10 mg/mL in DMSO, and the discs were allowed to air dry. The discs were then placed onto the surface of agar plates (nutrient agar for bacteria and Sabouraud's dextrose agar for fungi) seeded with the test organism. Each plate contained 15 mL of the agar medium, previously seeded with 0.2 mL of the broth culture of each organism pregrown for 18 hours. The plates were incubated at 37° C. for 48 h, and 72 h for fungi. The inhibition zones were measured in mm. Discs impregnated with DMSO were used as a control, and its inhibition zone was subtracted from the tested compound actual inhibition zone.
On the technique in general: Agar diffusion results depend on both activity and mobility in agar.

The subject of another test is Staphylococcus aureus. As to the kind of experiment: Agar plate disc-diffusion, antibacterial inhibition zone. The protocol:
(§1) The agar plate disc-diffusion method was applied. […] The discs were then placed onto the surface of agar plates (nutrient agar for bacteria and Sabouraud's dextrose agar for fungi) seeded with the test organism. Each plate contained 15 mL of the agar medium, previously seeded with 0.2 mL of the broth culture of each organism pregrown for 18 hours. The plates were incubated at 37° C. for 48 h, and 72 h for fungi. The inhibition zones were measured in mm. Discs impregnated with DMSO were used as a control, and its inhibition zone was subtracted from the tested compound actual inhibition zone.

In the next test the test system is Bacillus Cereus. The test is described as above. The protocol:
as §1

Another test relates to Escherichia coli. Described as above. The protocol: as §1
For a further test, the system named is Pseudomonas aeruginosa. Described as above. The protocol:
as §1

A further test relates to Aspergillus flavus. The experiment in a line: Agar plate disc-diffusion, antifungal inhibition zone. The protocol:
as §1

In test [1] the test system is Chrysosporium keratinophilum. The test is described as above. The protocol:
as §1

Test [2] deals with human osteosarcoma cells (MG-63). As to the kind of experiment: Cytotoxicity by SRB assay. The following applies: MG-63 cells, 0.01 μM to 100 μM for 72 h, result in words. The source says:
(§2) The anticancer activity of the described synthesized compounds against highly aggressive androgen-independent metastatic human prostate cancer cells (PC3) and osteosarcoma (MG-63) cells. The human prostate cancer cells (PC3) and human osteosarcoma cells (MG-63) were obtained from Nawah Scientific Inc. (Mokatam, Cairo, Egypt) and cultured in DMEM (Dulbecco's modified eagle's medium), Gibco, USA, supplemented with fetal bovine serum (FBS) at a concentration of 10% and 100 U/mL of penicillin and streptomycin (PS). The Cells were incubated at 37° C. in a humidified environment that contained 5% CO2.
(§3) Cells were seeded in 96-well plates as aliquots of 100 μL cell suspension and incubated in a complete media for 24 h. afterward, cells were treated with 3-(4-bromophenyl)-5-((2-isopropyl-5-methylphenoxy)methyl)-1,2,4-oxadiazole at diverse concentrations ranging from 0.01 μM to 100 μM for 72 h. Then, cells were fixed at 4° C. for one hour with 150 μL of 10% trichloroacetic acid (TCA). […] Then, 150 μL of Tris pH 10.5 (10 mM) was added, and the absorbance was measured at 540 nm using a BMG LABTECH®-FLUOstar Omega microplate reader (Ortenberg, Germany). Half maximal inhibitory concentrations (IC50) values were calculated for each experiment using GraphPad Prism 6 software. […]
(§4) The inhibition was calculated using the following equation: Inhibition %=100−Average Viability

In test [3] the test system is human prostate cancer cells (PC3). As to the kind of experiment: Cytotoxicity by SRB assay. The settings on record: 0.01 μM to 100 μM for 72 h, result in words.
Source text: as §2, §3, §4

[4] abbreviates: A = concentration of comp. = 10,000 μL.
The mark [5] stands for this setting: B = concentration of comp. = 30,000 μL.
The mark [6] stands for this setting: C = concentration of comp. = 50,000 μL.

Molecules are shown by their SMILES.

For the compound `Cc1ccc(C(C)C)c(OCc2nc(-c3ccc(Br)cc3)no2)c1` [compound 3, 3-(4-bromophenyl)-5-((2-isopropyl-5-methylphenoxy)methyl)-1,2,4-oxadiazole], the antimicrobial activity result with different microbes is recorded as “excellent antimicrobial activities”. For the same compound, the inhibition zone is on record as 13 mm with Staphylococcus aureus (setting [4]); 17 mm in the test with Staphylococcus aureus (setting [5]); 21 mm in the test with Staphylococcus aureus (setting [6]); 25 mm with Bacillus Cereus (setting [4]); 27 mm in the test on Bacillus Cereus (setting [5]); 42 mm in the test with Bacillus Cereus (setting [6]). Also, the inhibition zone came to 28 mm in the test on Escherichia coli (setting [4]); 37 mm with Escherichia coli (setting [5]); 55 mm in the test with Escherichia coli (setting [6]); 24 mm with Pseudomonas aeruginosa (setting [4]); 27 mm in the test on Pseudomonas aeruginosa (setting [5]); 39 mm with Pseudomonas aeruginosa (setting [6]). In addition, the inhibition zone is 17 mm in the test with Aspergillus flavus (setting [4]); 20 mm in the test with Aspergillus flavus (setting [5]); 29 mm in the test with Aspergillus flavus (setting [6]); 26 mm in test [1] (setting [4]); 28 mm in [1] (setting [5]); 48 mm in test [1] (setting [6]).

For the compound `Cc1ccc(C(C)C)c(OCc2nc(-c3ccc(Br)cc3)no2)c1` [3-(4-bromophenyl)-5-((2-isopropyl-5-methylphenoxy)methyl)-1,2,4-oxadiazole], the antiproliferative activity entry in [2] and in test [3] was “excellent antiproliferative activities” throughout.

Consider `O=C(O)c1cn(C2CC2)c2cc(N3CCNCC3)c(F)cc2c1=O` [Cip., ciprofloxacin, reference compound], for which the inhibition zone in the test with Staphylococcus aureus (setting [4]) is given as 43 mm; with Staphylococcus aureus (setting [5]) it was 44 mm; in the test with Staphylococcus aureus (setting [6]) it was 53 mm; in the test with Bacillus Cereus (setting [4]), 29 mm; with Bacillus Cereus (setting [5]) it was 30 mm; in the test on Bacillus Cereus (setting [6]), 42 mm. The inhibition zone is given as 30 mm with Escherichia coli (setting [4]); 39 mm in the test with Escherichia coli (setting [5]); 60 mm in the test on Escherichia coli (setting [6]); 29 mm in the test with Pseudomonas aeruginosa (setting [4]); 30 mm with Pseudomonas aeruginosa (setting [5]); 53 mm with Pseudomonas aeruginosa (setting [6]). Moreover, the inhibition zone in the test on Aspergillus flavus (setting [4]) is listed as 29 mm; in the test on Aspergillus flavus (setting [5]), 30 mm; in the test on Aspergillus flavus (setting [6]) it was 42 mm; in [1] (setting [4]) it was 29 mm; in test [1] (setting [5]) it was 30 mm; in [1] (setting [6]), 53 mm.

Values taken from patent US12162845B1, “3-(4-bromophenyl)-5-((2-isopropyl-5-methylphenoxy)methyl)-1,2,4-oxadiazole as an anti-cancer and antimicrobial compound” (KING FAISAL UNIVERSITY, priority 2023, dated 2024).
